From ChEMBL document CHEMBL1140804, “Design, synthesis and evaluation of trifluoromethane sulfonamide derivatives as new potent and selective peroxisome proliferator-activated receptor alpha agonists” (Bioorg Med Chem Lett, 2008)

Columns and labels:
[1] = target: T1, Peroxisome proliferator-activated receptor alpha (Mus musculus, UniProt P23204)
T1 sequence (P23204 whole entry): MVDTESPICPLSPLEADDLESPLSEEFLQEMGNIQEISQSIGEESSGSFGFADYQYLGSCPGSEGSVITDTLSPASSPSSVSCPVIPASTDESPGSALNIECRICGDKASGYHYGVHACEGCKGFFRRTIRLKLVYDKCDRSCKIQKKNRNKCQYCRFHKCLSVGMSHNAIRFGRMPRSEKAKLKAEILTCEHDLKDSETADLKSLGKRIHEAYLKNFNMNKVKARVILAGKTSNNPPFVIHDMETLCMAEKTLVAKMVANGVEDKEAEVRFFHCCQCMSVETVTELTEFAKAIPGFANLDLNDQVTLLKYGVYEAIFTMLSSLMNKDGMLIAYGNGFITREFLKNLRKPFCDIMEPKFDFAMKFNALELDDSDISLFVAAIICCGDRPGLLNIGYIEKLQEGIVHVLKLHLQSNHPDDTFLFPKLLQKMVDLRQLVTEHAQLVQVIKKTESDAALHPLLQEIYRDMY
Description: (§1) Agonist activity at mouse PPARalpha assessed as receptor activation by cell based assay

[2] = target: T2, Peroxisome proliferator-activated receptor alpha (Homo sapiens, UniProt Q07869)
T2 sequence (Q07869 whole entry): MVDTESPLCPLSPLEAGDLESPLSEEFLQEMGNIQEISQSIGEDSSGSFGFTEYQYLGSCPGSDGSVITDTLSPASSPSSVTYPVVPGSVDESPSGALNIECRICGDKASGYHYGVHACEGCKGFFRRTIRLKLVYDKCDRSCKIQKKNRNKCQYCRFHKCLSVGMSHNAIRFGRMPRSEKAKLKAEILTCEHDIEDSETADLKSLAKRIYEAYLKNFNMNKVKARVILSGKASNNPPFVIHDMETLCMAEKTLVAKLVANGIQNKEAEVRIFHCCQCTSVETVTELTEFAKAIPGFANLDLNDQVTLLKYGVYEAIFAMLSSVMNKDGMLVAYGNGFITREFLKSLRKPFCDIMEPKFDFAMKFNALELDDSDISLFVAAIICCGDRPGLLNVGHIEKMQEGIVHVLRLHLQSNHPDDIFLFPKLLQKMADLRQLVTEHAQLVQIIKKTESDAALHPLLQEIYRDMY
Description: Agonist activity at human PPARalpha assessed as receptor activation by cell based assay

[3] = target: T3, Peroxisome proliferator-activated receptor gamma (Mus musculus, UniProt P37238)
T3 sequence (P37238 whole entry): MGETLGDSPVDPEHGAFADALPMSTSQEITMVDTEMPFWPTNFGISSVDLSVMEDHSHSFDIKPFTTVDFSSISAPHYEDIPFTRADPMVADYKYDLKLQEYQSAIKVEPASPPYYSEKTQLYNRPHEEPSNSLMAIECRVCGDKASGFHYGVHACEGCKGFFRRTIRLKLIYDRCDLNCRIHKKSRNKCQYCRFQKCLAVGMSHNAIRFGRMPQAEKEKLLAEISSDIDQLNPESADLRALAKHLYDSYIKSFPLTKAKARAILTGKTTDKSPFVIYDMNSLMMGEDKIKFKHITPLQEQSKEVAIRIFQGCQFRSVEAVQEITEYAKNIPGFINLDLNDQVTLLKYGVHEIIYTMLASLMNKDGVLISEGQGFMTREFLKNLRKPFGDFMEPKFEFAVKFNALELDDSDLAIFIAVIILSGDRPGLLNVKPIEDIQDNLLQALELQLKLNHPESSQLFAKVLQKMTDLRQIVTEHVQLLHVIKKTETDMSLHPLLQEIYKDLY
Description: Agonist activity at mouse PPARgamma assessed as receptor activation by cell based assay

[4] = target: T4, Peroxisome proliferator-activated receptor delta (Homo sapiens, UniProt Q03181)
T4 sequence (Q03181 whole entry): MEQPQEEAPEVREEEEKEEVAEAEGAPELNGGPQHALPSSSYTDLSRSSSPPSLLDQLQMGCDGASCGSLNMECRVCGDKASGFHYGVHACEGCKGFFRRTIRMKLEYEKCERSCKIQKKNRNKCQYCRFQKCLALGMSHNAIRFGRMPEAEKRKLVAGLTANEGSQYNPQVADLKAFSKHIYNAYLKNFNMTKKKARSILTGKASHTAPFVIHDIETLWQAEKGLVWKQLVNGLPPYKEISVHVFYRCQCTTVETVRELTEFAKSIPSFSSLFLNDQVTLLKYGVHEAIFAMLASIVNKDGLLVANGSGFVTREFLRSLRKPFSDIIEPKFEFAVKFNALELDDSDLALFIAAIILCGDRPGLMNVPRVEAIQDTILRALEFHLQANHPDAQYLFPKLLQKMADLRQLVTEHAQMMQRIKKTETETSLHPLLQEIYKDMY
Description: Agonist activity at human PPARdelta assessed as receptor activation by cell based assay

[5] = target: T5, Peroxisome proliferator-activated receptor delta (Mus musculus, UniProt P35396)
T5 sequence (P35396 whole entry): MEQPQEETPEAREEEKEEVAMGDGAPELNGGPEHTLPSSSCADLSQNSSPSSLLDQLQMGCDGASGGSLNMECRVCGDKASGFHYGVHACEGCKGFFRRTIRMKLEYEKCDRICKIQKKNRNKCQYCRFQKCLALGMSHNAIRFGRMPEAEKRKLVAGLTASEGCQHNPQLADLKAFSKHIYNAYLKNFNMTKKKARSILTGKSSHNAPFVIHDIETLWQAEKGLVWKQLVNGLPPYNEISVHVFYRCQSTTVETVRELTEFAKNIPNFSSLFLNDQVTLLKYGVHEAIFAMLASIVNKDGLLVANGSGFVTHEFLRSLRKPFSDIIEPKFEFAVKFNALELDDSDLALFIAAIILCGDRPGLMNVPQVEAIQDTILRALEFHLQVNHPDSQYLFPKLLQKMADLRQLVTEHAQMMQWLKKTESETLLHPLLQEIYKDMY
Description: Agonist activity at mouse PPARdelta assessed as receptor activation by cell based assay

[6] = target: T6, Peroxisome proliferator-activated receptor gamma (Homo sapiens, UniProt P37231)
T6 sequence (P37231 whole entry): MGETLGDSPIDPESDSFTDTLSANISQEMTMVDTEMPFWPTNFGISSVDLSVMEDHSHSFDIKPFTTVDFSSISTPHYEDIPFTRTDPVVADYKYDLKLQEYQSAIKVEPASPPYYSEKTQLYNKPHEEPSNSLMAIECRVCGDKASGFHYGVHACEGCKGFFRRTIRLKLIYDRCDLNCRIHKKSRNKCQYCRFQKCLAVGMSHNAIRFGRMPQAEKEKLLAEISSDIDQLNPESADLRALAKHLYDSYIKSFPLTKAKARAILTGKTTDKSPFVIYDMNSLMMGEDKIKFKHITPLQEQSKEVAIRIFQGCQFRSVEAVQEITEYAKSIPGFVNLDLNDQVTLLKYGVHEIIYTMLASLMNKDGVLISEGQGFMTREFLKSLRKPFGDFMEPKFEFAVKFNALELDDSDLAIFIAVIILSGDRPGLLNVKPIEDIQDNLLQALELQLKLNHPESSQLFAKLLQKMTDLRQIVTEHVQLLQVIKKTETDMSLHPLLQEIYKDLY
Description: Agonist activity at human PPARgamma assessed as receptor activation by cell based assay

[7] = target: T7, Peroxisome proliferator-activated receptor alpha (Mus musculus) (UniProt P23204)
T7 sequence (whole entry): T1 sequence (P23204 whole entry)
Description: as §1

EC50 [1] [µM]	EC50 [2] [µM]	EC50 [3] [µM]	EC50 [4] [µM]	EC50 [5] [µM]	EC50 [6] [µM]	Activity [7] [%]	SMILES
> 25	1	–	–	–	–	–	CC(C)(Oc1ccc(CNC(=O)c2ccc(-c3ccc(C#N)cc3)cc2)cc1)C(=O)O
> 10	> 10	> 10	> 10	> 10	> 10	–	Cc1nc(-c2ccc(C(F)(F)F)cc2)sc1C(=O)NCc1ccc(-c2c(O)c(=O)c2=O)cc1
> 25	3	–	–	–	–	–	COCc1nc(-c2ccc(C(=O)NCc3ccc(OC(C)(C)C(=O)O)cc3)cc2)no1
> 25	5	–	–	–	–	–	Cc1csc(-c2ccc(C(=O)NCc3ccc(OC(C)(C)C(=O)O)cc3)cc2)n1
0.08	0.06	–	–	–	–	96	Cc1csc(-c2ccc(C(=O)NCc3ccc(NS(=O)(=O)C(F)(F)F)cc3)cc2)n1
> 10	1	> 10	> 10	> 10	> 10	–	Cc1ccc(S(=O)(=O)Nc2ccc(CNC(=O)c3sc(-c4ccc(C(F)(F)F)cc4)nc3C)cc2)cc1
> 10	> 10	> 10	> 10	> 10	> 10	–	Cc1nc(-c2ccc(C(F)(F)F)cc2)sc1C(=O)NCc1ccc(OCc2nn[nH]n2)cc1
> 10	> 10	> 10	> 10	> 10	> 10	–	Cc1nc(-c2ccc(C(F)(F)F)cc2)sc1C(=O)NCc1ccc(OC(C)(C)C(=O)NS(=O)(=O)C(F)(F)F)cc1
1	0.07	–	–	–	–	130	CC(C)(Oc1ccc(CNC(=O)c2ccc(-c3ccc(Cl)cc3)cc2)cc1)C(=O)O
0.02	–	9.7	–	1.7	9.7	103	Cc1nc(-c2ccc(C(F)(F)F)cc2)sc1C(=O)NCc1ccc(OC(C)(C)C(=O)O)cc1 [GW590735]
> 25	6	–	–	–	–	–	COc1ccc2sc(C(=O)NCc3ccc(OC(C)(C)C(=O)O)cc3)cc2c1
0.8	0.06	> 10	> 10	> 10	> 10	78	Cc1nc(-c2ccc(C(F)(F)F)cc2)sc1C(=O)NCc1ccc(NS(C)(=O)=O)cc1
> 25	2.8	–	–	–	–	–	CC(C)(Oc1ccc(CNC(=O)Cc2ccc(-c3ccc(Cl)cc3)cc2)cc1)C(=O)O
> 10	0.08	> 10	> 10	> 10	> 10	–	Cc1nc(-c2ccc(C(F)(F)F)cc2)sc1C(=O)NCc1ccc(CNS(=O)(=O)C(F)(F)F)cc1
0.34	0.08	–	–	–	–	0.34	O=C(Cc1ccc(-c2ccc(Cl)cc2)cc1)NCc1ccc(NS(=O)(=O)C(F)(F)F)cc1
> 10	0.45	> 10	> 10	> 10	> 10	–	Cc1nc(-c2ccc(C(F)(F)F)cc2)sc1C(=O)NCc1ccc(NC(=O)C(F)(F)F)cc1
0.7	0.36	–	–	–	–	116	COCc1nc(-c2ccc(C(=O)NCc3ccc(NS(=O)(=O)C(F)(F)F)cc3)cc2)no1
0.2	0.02	–	–	–	–	152	N#Cc1ccc(-c2ccc(C(=O)NCc3ccc(NS(=O)(=O)C(F)(F)F)cc3)cc2)cc1
> 10	0.05	> 10	> 10	> 10	> 10	–	Cc1nc(-c2ccc(C(F)(F)F)cc2)sc1C(=O)NCc1ccc(NS(=O)(=O)C(C)C)cc1
0.13	0.08	–	–	–	–	132	COc1ccc2sc(C(=O)NCc3ccc(NS(=O)(=O)C(F)(F)F)cc3)cc2c1
> 10	0.32	6.7	> 10	> 10	5.5	–	CCCCS(=O)(=O)Nc1ccc(CNC(=O)c2sc(-c3ccc(C(F)(F)F)cc3)nc2C)cc1

SMILES	EC50 [1] [µM]	EC50 [2] [µM]	EC50 [3] [µM]	EC50 [4] [µM]	EC50 [5] [µM]	EC50 [6] [µM]	Activity [7] [%]
Cc1nc(-c2ccc(C(F)(F)F)cc2)sc1C(=O)NCc1ccc(NS(=O)(=O)C(F)(F)F)cc1	0.002	0.0003	0.6	0.4	0.3	0.5	98
Cc1nc(-c2ccc(C(F)(F)F)cc2)sc1C(=O)NCc1ccc(NS(=O)(=O)CC(F)(F)F)cc1	0.06	0.003	0.3	> 10	> 10	0.3	74
